The values below come from patent US20260286573A1, “3D PRINTING ELECTROSPINNING SYSTEMS AND METHODS” (Board of Regents, The University of Texas System, priority 2023, published 2026).

A short description of this data set: Thermogravimetric analysis (TGA), thermal stability. The note with it: for decrease in mass, initial phase of TGA (surface-absorbed water): 10 °C/min, nitrogen. The data set is classed as physicochemical. As to the method: Thermogravimetric Analysis (TGA). FIG. 13 provides data showing thermogravimetric analysis (TGA) of raw materials and mixtures according to some examples. In some examples, the thermal properties of the raw materials and physical mixtures may be determined through a Mettler-Toledo TGA/DSC1 analyzer (Mettler-Toledo, Schwerzenbach, Switzerland). Sample raw materials and physical mixtures may be placed in an open ceramic crucible and ramped from 35° C. to 600° C. at a rate of 10° C./min. A furnace may be purged using ultra-purified nitrogen at a flow rate of 50 mL/min.
Thermogravimetric analysis (TGA) was conducted to examine the degradation patterns and thermal stabilities of EPO, S100, CUR, RTV, and Xspin bi-fibers (FIG. 13). TGA measures the change in sample mass as a function of temperature using a thermobalance.

For the compound `COc1cc(/C=C/C(=O)CC(=O)/C=C/c2ccc(O)c(OC)c2)ccc1O` [CUR, Curcumin], the “decrease in mass, initial phase of TGA (surface-absorbed water)” value is listed as “no losses”. For the setting “between 245 and 420° C.”, the “weight loss, second phase of TGA” value was determined as 60%.

With `CC(C)c1nc(CN(C)C(=O)N[C@H](C(=O)N[C@@H](Cc2ccccc2)C[C@H](O)[C@H](Cc2ccccc2)NC(=O)OCc2cncs2)C(C)C)cs1` [RTV, Ritonavir], the “decrease in mass, initial phase of TGA (surface-absorbed water)” value is reported as “no losses”. Further, the “weight loss, second phase of TGA” value (between 20° and 250° C.) is recorded as 40%. In addition, the “second weight loss (TGA)” value (between 30° and 395° C.) is listed as ~ 50%.
